Columns and labels:
[1] = target: T1, Chymotrypsin-like elastase family member 2A (Sus scrofa) (UniProt P08419); assay: Irreversible inhibitory activity against porcine pancreatic elastase at concentration 4.8 uM; No irreversible inhibitory activity
T1 sequence (whole entry): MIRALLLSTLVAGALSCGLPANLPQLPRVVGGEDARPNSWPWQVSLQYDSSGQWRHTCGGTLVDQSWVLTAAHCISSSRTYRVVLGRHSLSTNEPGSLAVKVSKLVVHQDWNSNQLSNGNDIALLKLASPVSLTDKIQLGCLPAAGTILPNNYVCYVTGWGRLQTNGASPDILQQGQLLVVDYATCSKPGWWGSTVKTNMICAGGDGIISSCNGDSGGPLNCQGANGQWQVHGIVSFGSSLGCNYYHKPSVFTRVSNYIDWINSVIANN

[2] = target: Chymotrypsinogen A (Bos taurus) (UniProt P00766); assay: Irreversible inhibitory activity against alpha-chymotrypsin; Inhibition observed
[3] = target: Chymotrypsinogen A (Bos taurus) (UniProt P00766); assay: Irreversible inhibitory activity against alpha-chymotrypsin; No inhibition

Activity [1] [mM] | Activity [2] [µM] | Activity [3] [mM] | Compound
1.2 | 500 | – | CC(NC(=O)C(C)NC(=O)CCC(=O)N[C@@H](Cc1ccccc1)C(=O)OC1CC1(Cl)Cl)C(=O)O (some centres undefined)
– | – | 14.5 | O=C(O)CCC(=O)N[C@@H](Cc1ccccc1)C(=O)NC1CC1(Cl)Cl (some centres undefined)
– | – | < 1 | O=C(O)CCC(=O)N[C@@H](Cc1ccccc1)C(=O)OC1CC1(Cl)Cl (some centres undefined)

From ChEMBL document CHEMBL1128985, “Mechanism-based inactivation of -chymotrypsin” (Bioorg Med Chem Lett, 1996)
